From ChEMBL document CHEMBL4017483, “Potent and selective oxytocin receptor agonists without disulfide bridges” (Bioorg Med Chem Lett, 2017) come the findings set out here.

Test [1] addresses T1, Oxytocin receptor (Homo sapiens, UniProt P30559).
T1 sequence (P30559 whole entry): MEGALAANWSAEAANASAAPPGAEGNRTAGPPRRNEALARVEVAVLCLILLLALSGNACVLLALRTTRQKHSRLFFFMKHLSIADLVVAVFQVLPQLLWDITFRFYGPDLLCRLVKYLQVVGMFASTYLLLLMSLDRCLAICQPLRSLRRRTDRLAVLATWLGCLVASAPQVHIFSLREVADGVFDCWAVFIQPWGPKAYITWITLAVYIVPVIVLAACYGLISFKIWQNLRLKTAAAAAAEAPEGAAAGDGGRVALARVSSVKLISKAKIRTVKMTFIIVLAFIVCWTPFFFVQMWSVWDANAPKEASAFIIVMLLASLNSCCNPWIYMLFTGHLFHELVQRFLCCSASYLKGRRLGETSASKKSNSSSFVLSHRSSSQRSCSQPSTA
The test can be described thus: Agonist activity at human OTR expressed in CHO cells assessed as calcium mobilization measured after 30 mins by Fluo-4-AM dye based FLIPR assay. It counts as functional, cell-based.

The species named for test [2] is Homo sapiens. The test can be described thus: Selectivity ratio of EC50 for human V1a receptor to EC50 for human OTR.
The species entered for test [3] is Homo sapiens. The test can be described thus: Selectivity ratio of EC50 for human V1b receptor to EC50 for human OTR.
The target of test [4] is Vasopressin V1a receptor (Homo sapiens, UniProt P37288). Description: Agonist activity at human V1a receptor expressed in CHO cells assessed as calcium mobilization measured after 30 mins by Fluo-4-AM dye based FLIPR assay. It counts as cell-based. For orientation: A change in cytosolic calcium serves as a functional read-out for many receptors and channels.
The target of test [5] is T2, Vasopressin V1b receptor (Homo sapiens, UniProt P47901).
T2 sequence (P47901 whole entry): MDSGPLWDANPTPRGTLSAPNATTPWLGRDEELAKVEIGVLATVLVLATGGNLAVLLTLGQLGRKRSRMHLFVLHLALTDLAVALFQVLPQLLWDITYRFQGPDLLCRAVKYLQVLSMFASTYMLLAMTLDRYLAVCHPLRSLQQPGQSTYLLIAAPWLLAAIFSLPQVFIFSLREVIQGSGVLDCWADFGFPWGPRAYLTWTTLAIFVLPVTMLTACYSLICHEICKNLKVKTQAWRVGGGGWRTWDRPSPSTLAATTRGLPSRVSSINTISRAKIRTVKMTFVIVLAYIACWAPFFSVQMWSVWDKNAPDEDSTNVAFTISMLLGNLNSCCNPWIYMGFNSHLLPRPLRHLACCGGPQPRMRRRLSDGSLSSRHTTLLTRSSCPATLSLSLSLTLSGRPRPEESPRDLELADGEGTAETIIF
The test can be described thus: Agonist activity at human V1b receptor expressed in CHO cells assessed as calcium mobilization measured after 30 mins by Fluo-4-AM dye based FLIPR assay. Type of test: cell-based.

Bridge positions count the residues as written; N and C are the ends. Square brackets hold non-standard residues; d marks the D form. Peptide text beside a SMILES is read from it. Mpa = O=C(O)CCS

Chain of Vasopressin V1a receptor (P37288 whole entry): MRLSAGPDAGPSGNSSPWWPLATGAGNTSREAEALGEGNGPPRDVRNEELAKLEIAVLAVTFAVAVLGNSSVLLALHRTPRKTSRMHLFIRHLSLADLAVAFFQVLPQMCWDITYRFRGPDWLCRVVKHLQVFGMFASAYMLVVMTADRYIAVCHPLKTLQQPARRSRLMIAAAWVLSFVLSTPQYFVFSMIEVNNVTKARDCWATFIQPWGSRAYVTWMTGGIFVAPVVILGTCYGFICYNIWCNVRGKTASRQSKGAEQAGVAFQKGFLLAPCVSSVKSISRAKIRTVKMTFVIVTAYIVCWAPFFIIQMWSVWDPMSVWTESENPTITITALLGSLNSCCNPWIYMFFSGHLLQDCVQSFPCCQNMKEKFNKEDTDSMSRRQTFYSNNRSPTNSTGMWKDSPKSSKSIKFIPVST

What is called EC50 is the concentration giving half of the maximal effect. Consider `CCCCCC[C@H](NC(=O)[C@@H]1CCCN1C(=O)[C@@H]1CSSCCC(=O)N[C@@H](Cc2ccc(O)cc2)C(=O)N[C@@H]([C@@H](C)CC)C(=O)N[C@@H](CCC(N)=O)C(=O)N[C@@H](CC(N)=O)C(=O)N1)C(=O)NCC(N)=O`, for which the EC50 in test [1] came out at 0.027 nM; in test [4], 3.1 nM; in test [5], 0.55 nM. Besides, the Ratio EC50 in test [2] came out at 120; in test [3], 20.
On to `CC[C@H](C)[C@@H]1NC(=O)[C@H](Cc2ccc(O)cc2)NC(=O)CCSSC[C@@H](C(=O)N2C[C@@H](O)C[C@H]2C(=O)N[C@@H](CC(C)C)C(=O)NCC(N)=O)NC(=O)[C@H](CC(N)=O)NC(=O)[C@H](CCC(N)=O)NC1=O`, for which the EC50 was 0.007 nM in test [1], greater than 100 nM in test [4] and 8.2 nM in test [5]. The Ratio EC50 is greater than 10000 in test [2] and 1200 in test [3].
As to `CC[C@H](C)[C@@H]1NC(=O)[C@H](Cc2ccc(O)cc2)NC(=O)CCSSC[C@@H](C(=O)N2CCC[C@H]2C(=O)N[C@@H](CC(C)(C)C)C(=O)NCC(N)=O)NC(=O)[C@H](CC(N)=O)NC(=O)[C@H](CCC(N)=O)NC1=O`, the results for the concentration giving a half-maximal response (EC50) in test [1], in test [4] and in test [5] were 0.0086 nM, greater than 100 nM and greater than 100 nM, respectively. For the same molecule, the Ratio EC50 in test [2] and in test [3] was greater than 10000 each time.
Regarding `CC[C@H](C)[C@@H]1NC(=O)[C@H](Cc2ccc(O)cc2)NC(=O)CCSSC[C@@H](C(=O)N2CCC[C@H]2C(=O)N[C@@H](CC(C)C)C(=O)N(C)CC(N)=O)NC(=O)[C@H](CC(N)=O)NC(=O)[C@H](CCC(N)=O)NC1=O`, the concentration for a half-maximal effect (EC50) in test [1] was 0.12 nM; in test [4], greater than 100 nM; in test [5] it was greater than 100 nM. The Ratio EC50 in test [2] and in test [3] was greater than 100 throughout.
`CCCC[C@H](NC(=O)[C@@H]1CCCN1C(=O)[C@@H]1CSSCCC(=O)N[C@@H](Cc2ccc(O)cc2)C(=O)N[C@@H]([C@@H](C)CC)C(=O)N[C@@H](CCC(N)=O)C(=O)N[C@@H](CC(N)=O)C(=O)N1)C(=O)NCC(N)=O`: the half-maximal effective concentration (EC50) in test [1] is 0.015 nM; in test [4] it was 4.4 nM; in test [5] it was 0.5 nM. The results for the Ratio EC50 in test [2] and in test [3] were 290 and 33, respectively.
For the molecule `CC[C@H](C)[C@@H]1NC(=O)[C@H](Cc2ccc(O)cc2)NC(=O)CCSSC[C@@H](C(=O)N2CCCCC2C(=O)N[C@@H](CC(C)C)C(=O)NCC(N)=O)NC(=O)[C@H](CC(N)=O)NC(=O)[C@H](CCC(N)=O)NC1=O` (stereo partly drawn), the concentration for a half-maximal effect (EC50) in test [1] was 0.013 nM; in test [4], greater than 100 nM; in test [5], 4 nM. Further, the Ratio EC50 in test [2] is greater than 1000; in test [3], 310.
For `CC[C@H](C)[C@@H]1NC(=O)[C@H](Cc2ccc(O)cc2)NC(=O)CCSSC[C@@H](C(=O)N2C[C@H](O)C[C@H]2C(=O)N[C@@H](CC(C)C)C(=O)NCC(N)=O)NC(=O)[C@H](CC(N)=O)NC(=O)[C@H](CCC(N)=O)NC1=O`, the EC50 was 0.0053 nM in test [1], greater than 100 nM in test [4] and greater than 100 nM in test [5]. Also, the Ratio EC50 in test [2] and in test [3] was greater than 10000 throughout.
For `CCCCCCC(NC(=O)[C@@H]1CCCN1C(=O)[C@@H]1CSSCCC(=O)N[C@@H](Cc2ccc(O)cc2)C(=O)N[C@@H]([C@@H](C)CC)C(=O)N[C@@H](CCC(N)=O)C(=O)N[C@@H](CC(N)=O)C(=O)N1)C(=O)NCC(N)=O` (stereo partly drawn), the concentration for a half-maximal effect (EC50) in test [1] turned out to be 0.027 nM; in test [4], 3.1 nM; in test [5] it was 0.55 nM. The Ratio EC50 is 120 in test [2] and 20 in test [3].
Regarding `CC[C@H](C)[C@@H]1NC(=O)[C@H](Cc2ccc(O)cc2)NC(=O)CCSSC[C@@H](C(=O)N2CCC[C@H]2C(=O)N[C@@H](CC2CCCCC2)C(=O)NCC(N)=O)NC(=O)[C@H](CC(N)=O)NC(=O)[C@H](CCC(N)=O)NC1=O`, the concentration giving a half-maximal response (EC50) in test [1] is 0.01 nM; in test [4], greater than 100 nM; in test [5], 1.4 nM. The Ratio EC50 in test [2] is greater than 1000; in test [3], 140.
As for `S`, the results for the EC50 in test [1], in test [4] and in test [5] were 0.12 nM, greater than 100 nM and greater than 100 nM, respectively. Also, the Ratio EC50 in test [2] and in test [3] was greater than 100 each time.
For the molecule `CC[C@H](C)[C@@H]1NC(=O)[C@H](Cc2ccc(O)cc2)NC(=O)CCSSC[C@@H](C(=O)N2CCC[C@H]2C(=O)N[C@@H](CC(C)C)C(=O)NNC(N)=O)NC(=O)[C@H](CC(N)=O)NC(=O)[C@H](CCC(N)=O)NC1=O`, the figures for the EC50 in test [1], in test [4] and in test [5] were 0.0075 nM, 70 nM and 7.3 nM, respectively. The Ratio EC50 in test [2] was 9300; in test [3], 970.
With `CC[C@H](C)[C@@H]1NC(=O)[C@H](Cc2ccc(O)cc2)NC(=O)CCSSC[C@@H](C(=O)N2CCC[C@H]2C(=O)N[C@@H](CC(C)C)C(=O)NCC(N)=O)NC(=O)[C@H](CC(N)=O)NC(=O)[C@H](CCC(N)=O)NC1=O`, the EC50 in test [5] is 3.2 nM.
Turning to `CC[C@H](C)[C@@H]1NC(=O)[C@H](C)NC(=O)CCSSC[C@@H](C(=O)N2CCC[C@H]2C(=O)N[C@@H](CC(C)C)C(=O)NCC(N)=O)NC(=O)[C@H](CC(N)=O)NC(=O)[C@H](CCC(N)=O)NC1=O` ([Mpa]AIQNCPLG-NH2; disulfide 1-6), the 50% effective concentration (EC50) in test [1], in test [4] and in test [5] was greater than 100 nM each time.
For the molecule `CC[C@H](C)[C@@H]1NC(=O)[C@H](CCC(=O)O)NC(=O)CCSSC[C@@H](C(=O)N2CCC[C@H]2C(=O)N[C@@H](CC(C)C)C(=O)NCC(N)=O)NC(=O)[C@H](CC(N)=O)NC(=O)[C@H](CCC(N)=O)NC1=O` ([Mpa]EIQNCPLG-NH2; disulfide 1-6), the EC50 in test [1], in test [4] and in test [5] was greater than 100 nM each time.
With `CC[C@H](C)[C@@H]1NC(=O)[C@H](CCCNC(=N)N)NC(=O)CCSSC[C@@H](C(=O)N2CCC[C@H]2C(=O)N[C@@H](CC(C)C)C(=O)NCC(N)=O)NC(=O)[C@H](CC(N)=O)NC(=O)[C@H](CCC(N)=O)NC1=O` ([Mpa]RIQNCPLG-NH2; disulfide 1-6), the EC50 in test [1], in test [4] and in test [5] was greater than 100 nM in each case.
In the case of `CC[C@H](C)[C@@H]1NC(=O)[C@H](CO)NC(=O)CCSSC[C@@H](C(=O)N2CCC[C@H]2C(=O)N[C@@H](CC(C)C)C(=O)NCC(N)=O)NC(=O)[C@H](CC(N)=O)NC(=O)[C@H](CCC(N)=O)NC1=O` ([Mpa]SIQNCPLG-NH2; disulfide 1-6), the EC50 in test [1], in test [4] and in test [5] was greater than 100 nM each time.
With `CC(C)C[C@H](NC(=O)[C@@H]1CCCN1C(=O)[C@@H]1CSSCCC(=O)N[C@@H](Cc2ccc(O)cc2)C(=O)N[C@@H](CCC(=O)O)C(=O)N[C@@H](CCC(N)=O)C(=O)N[C@@H](CC(N)=O)C(=O)N1)C(=O)NCC(N)=O` ([Mpa]YEQNCPLG-NH2; disulfide 1-6), the EC50 in test [1], in test [4] and in test [5] was greater than 100 nM each time.
For the molecule `CC[C@H](C)[C@@H]1NC(=O)[C@H](Cc2ccc(O)cc2)NC(=O)CCSSC[C@@H](C(=O)N2CCC[C@H]2C(=O)N[C@@H](CC(C)C)C(=O)NCC(N)=O)NC(=O)[C@H](Cc2ccccc2)NC(=O)[C@H](CCC(N)=O)NC1=O` ([Mpa]YIQFCPLG-NH2; disulfide 1-6), the EC50 in test [1], in test [4] and in test [5] was greater than 100 nM throughout.
In the case of `CC[C@H](C)[C@@H]1NC(=O)[C@H](Cc2ccc(O)cc2)NC(=O)CCSSC[C@@H](C(=O)N2CCC[C@H]2C(=O)N[C@@H](CC(C)C)C(=O)NCC(N)=O)NC(=O)[C@H](CC(C)C)NC(=O)[C@H](CCC(N)=O)NC1=O` ([Mpa]YIQLCPLG-NH2; disulfide 1-6), the EC50 in test [1], in test [4] and in test [5] was greater than 100 nM in each case.
For the molecule `CC[C@H](C)[C@@H]1NC(=O)[C@H](Cc2ccc(O)cc2)NC(=O)CCSSC[C@@H](C(=O)N2CCC[C@H]2C(=O)N[C@@H](CC(C)C)C(=O)NCC(N)=O)NC(=O)[C@H](CCCNC(=N)N)NC(=O)[C@H](CCC(N)=O)NC1=O` ([Mpa]YIQRCPLG-NH2; disulfide 1-6), the EC50 in test [1], in test [4] and in test [5] was greater than 100 nM in each case.
Turning to `CC(C)C[C@H](NC(=O)[C@@H]1CCCN1C(=O)[C@@H]1CSSCCC(=O)N[C@@H](Cc2ccc(O)cc2)C(=O)N[C@@H](CCCNC(=N)N)C(=O)N[C@@H](CCC(N)=O)C(=O)N[C@@H](CC(N)=O)C(=O)N1)C(=O)NCC(N)=O` ([Mpa]YRQNCPLG-NH2; disulfide 1-6), the EC50 in test [1], in test [4] and in test [5] was greater than 100 nM in each case.
